{
  "source": "patent US20240366571A1",
  "about": "“MODULATORS OF SK4 POTASSIUM CHANNEL AND USES THEREOF” (Ramot at Tel-Aviv University Ltd., priority 2022, published 2024)",
  "key": {"[1]": {"biological_target": "T1, rat SK2 (Rattus norvegicus, UniProt P70604)", "T1 construct": "expressed in transfected cells; host or cells: CHO cells", "assay": "Whole-cell patch-clamp of SK2 currents in CHO cells", "format": "cell-based", "details": "20 μM", "procedure": "Constructs: For CHO cell transfection, the following were cloned: human SK1, rat SK2, human SK3, and rat calmodulin into the pcDNA3 vector, human SK4 into pEGFP-C1 vector, and PIP4,5-kinase into an IRES-dsRed plasmid. The mutations were introduced using the PCR-based QuikChange™ site-directed mutagenesis (Stratagene®) and were verified by full sequencing of the entire plasmid vector.\nCell Culture and Transfection: Chinese hamster ovary (CHO) cells were grown in Dulbecco's modified Eagle's medium supplemented with 2 millimolar (mM) glutamine, 10% fetal calf serum, and antibiotics. In brief, 40,000 cells seeded on poly-L-lysine-coated glass coverslips (13 millimeter (mm) in diameter) in a 24-multiwell plate were transfected with 0.5 microgram (μg) pEGFP-SK4/0.5 μg mutant SK4, 1.2 μg dsRed-PIP4,5-kinase or with 1 μg SK1/SK2/SK3 together with pIRES-CD8 (0.3 μg) as a marker for transfection. […]\nWhole-cell patch-clamp recording: Voltage-clamp recordings were performed using the whole-cell configuration of the patch-clamp technique. […] The intracellular pipette solution contained 130 mM KCl, 5 mM EGTA, 10 mM HEPES, pH 7.3 (adjusted with KOH), and CaCl2 calculated for a final concentration of 1 μM free-Ca^2+, by MAXCHELATOR (WEBMAXC STANDARD) software, with sucrose added to adjust osmolarity to 290 mosM. […]"}, "[2]": {"tested_on": "isolated rat hearts", "assay": "Langendorff perfused isolated rat hearts: electrophysiology and hemodynamics", "details": "10 μM", "procedure": "Animals: Adult male Sprague-Dawley rats (n=56, 200-250 grams) and Guinea pigs (n=19, 400-700 grams) obtained from Envigo Laboratories (Jerusalem, Israel) were bred and grown in Ben-Gurion University of the Negev, Israel. Experiments in rats and guinea pigs were approved by the institutional ethics committee of Ben-Gurion University of the Negev, Israel (Protocol No. IL-24-05-2020(D) and were carried out in strict accordance with the Guide for the Care and Use of Laboratory Animals of the National Institutes of Health. The animals were kept under standardized conditions: 12:12 light: dark cycles at 20-24° C. and 30-70% relative humidity.\nPerfused isolated hearts—Langendorff method: The isolated heart experiment setup was performed as described in Etzion et al., Am J Physiol Heart Circ Physiol (2008) 295, H1460-1469; and Mor et al., J Pharmacol Exp Ther (2013) 344, 59-67.]. Briefly, each animal was anesthetized with 2% isoflurane and an intraperitoneal (IP) injection of pentobarbital (60 mg/kg), followed by IP injection of Heparin (1000 U/kg). The heart was rapidly excised and placed into ice-cold Tyrode's buffer solution (consisted of 140 mM NaCl, 5.4 mM KCl, 0.5 mM MgCl2, 2.5 mM CaCl2, 0.39 mM NaH2PO4, 10 mM HEPES and 11 mM glucose, and titrated to pH 7.4 with NaOH). The aorta was cannulated and connected to a pre-heated (37° C.) and oxygenated perfusion system with Tyrode's solution while perfusion pressure was maintained at about 70 mmHg throughout the experiment. Prior to the experiment, the heart was left in Tyrode's solution to stabilize for 20 minutes for hemodynamic measurements, the left atrial appendage was excised, and a collapsed latex balloon was inserted into the left ventricle (LV) through the mitral valve. Once positioned, the balloon was filled with double distilled water reaching an end-diastolic pressure of 10-15 mmHg. Coronary perfusion pressure and LV pressure were recorded by a pressure amplifier (ETH-256C amplifier and B-100 probes, iWorx, NH, USA). Electrophysiological signals were recorded from the high right atrium (HRA) via a miniature quadripolar hook electrode (for simultaneous pacing and recording) and from the LV via a bipolar hook electrode. Electrical signals were filtered (1-2 kHz) and recorded by two voltage amplifiers (Model 3000, A-M Systems, Carlsberg, WA, USA). Signals were interfaced with a PC using an A/D converter (PCI-6024E, National Instruments, Austin TX, USA) and a custom-designed program developed with LabVIEW programing language (National Instruments, Austin, TX, USA) to control signal acquisition, data saving and off-line analysis. Measured physiological parameters during the experiment included perfusion flow (ml/minute) as a marker for coronary perfusion pressure, LV developed pressure, dP/dt±(representing the rate of rise of left ventricular pressure during isovolumetric contraction as a marker for LV contractility), heart rate, PR, and RR intervals. Tram-34 and BA6b9 were applied for a 20-minutes incubation period and physiological parameters were recorded.\nEffective refractory period measurements: Using both custom-made quadripolar electrode inserted on the HRA and two bipolar electrodes (recording and pacing) on the LV, allowed measurement of the effective refractory period (ERP) at the atrial level (atrial effective refractory period, AERP), atrioventricular level (AVERP), and ventricular level (VERP). For ERP measurement, a programmed S1S2 stimulation protocol was performed using double diastolic threshold intensity. The protocol consisted of ten S1-S2 intervals of 150 milliseconds (ms) followed by an S1-S2 interval that was reduced by 1 ms each time, until pacing capture failed three consecutive times. AERP, AVERP, and VERP were measured and recorded prior and after exposure to the used inhibitor, either Tram-34 or BA6b9."}},
  "data": [
    {"smiles": "CCCCCCCn1c(=O)oc2ccccc21", "note": "[BA6b9, 3-heptylbenzo[d]oxazol-2(3H)-one]", "values": [
      {"measurement": "SK2 activity in comparison with control", "setting": "[1]", "value": 134, "unit": "%"},
      {"measurement": "SK2 drug-to-control current ratio", "setting": "[1]", "value": 1.34},
      {"measurement": "AERP (effect)", "setting": "[2]", "value": "prolonged"},
      {"measurement": "AVERP (effect)", "setting": "[2]", "value": "prolonged"},
      {"measurement": "VERP (effect)", "setting": "[2]", "value": "did not change"},
      {"measurement": "coronary flow (perfusion flow velocity)", "setting": "[2]", "value": "minimal effect"},
      {"measurement": "left ventricular filling pressure (developed pressure)", "setting": "[2]", "value": "reduced"},
      {"measurement": "maximal pressure change in left ventricular contractility (dP/dt max)", "setting": "[2]", "value": "does not effect it"},
      {"measurement": "minimal pressure change in left ventricular contractility (dP/dt min)", "setting": "[2]", "value": "does not effect it"},
      {"measurement": "AERP", "setting": "[2]; from 56 ms before compound", "value": 63, "unit": "ms"},
      {"measurement": "PR interval", "setting": "[2]; from 56 ms before compound", "value": 68, "unit": "ms"},
      {"measurement": "AVERP", "setting": "[2]; from 84 ms before compound", "value": 89, "unit": "ms"},
      {"measurement": "heart rate", "setting": "[2]; from 228 bpm before compound", "value": 196, "unit": "bpm"}
    ]}
  ]
}
